This is an account of results in PubChem BioAssay (NCI).

Common to all, as to assay: NCI tumour cell line growth inhibition, 48 h
For assay [1], the system named is MALME-3M melanoma.
Assay [2] relates to SF-268 CNS.
The test system of assay [3] is NCI-H460 lung.
Assay [4] concerns T-47D breast.
Assay [5] has as its system UACC-62 melanoma.
The subject of assay [6] is KM12 colon.
In assay [7] the test system is LOX IMVI melanoma.
Assay [8] has as its system CCRF-CEM leukemia.
In assay [9] the test system is NCI-H226 lung.
In assay [10] the test system is RPMI-8226 leukemia.

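The compound was tested at five concentrations on cells cultured in 96-well plates, with a 48-hour exposure period. GI50 = concentration required for 50% inhibition of growth. The concentration for full growth arrest is given as TGI.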 Where only a bound is given, the exact number is not on record here.

As to `CON=C1C[C@]2(C[C@@H]3C[C@@H](C/C=C(\C)C[C@@H](C)/C=C/C=C4\CO[C@@H]5[C@H](O)C(C)=C[C@@H](C(=O)O3)[C@]45O)O2)O[C@H](/C(C)=C/C(C)C)[C@H]1C`, the GI50 in [1] was 17.1 µM; in [2], 13 µM; in [3] it was 13.1 µM; in assay [4] it was 8.9 µM; in assay [5], 14.4 µM; in [6], 8.1 µM. For the same compound, the GI50 was 13.3 µM in assay [7], 7.65 µM in assay [8], 16 µM in assay [9] and 4.23 µM in assay [10]. The TGI turned out to be 34.4 µM in assay [1]; 27.5 µM in [2]; 30.3 µM in assay [3]; 22.2 µM in assay [4]; 29.6 µM in assay [5]; 21.9 µM in [6]. Moreover, the TGI was found to be 26.5 µM in assay [7], 34.3 µM in assay [8], 29.8 µM in assay [9] and 53.6 µM in assay [10].

Consider `O=C(Nc1ccc(Oc2ccc(NC(=O)Nc3ccccc3Cl)cc2)cc1)Nc1ccccc1Cl`, for which the GI50 in assay [1] is 15.4 µM; in assay [2], 8.11 µM; in assay [3] it was 2.49 µM; in assay [4] it was 6.98 µM; in assay [5] it was 7.42 µM; in assay [6], more than 100 µM. For the same compound, the GI50 was 10.8 µM in [7], 4.72 µM in [8], 15.6 µM in assay [9] and 1.19 µM in assay [10]. Besides, the TGI is more than 96 µM in assay [1]; 55.1 µM in [2]; more than 100 µM in assay [3]; more than 90.6 µM in [4]; more than 62 µM in [5]; more than 100 µM in assay [6]. Moreover, the TGI in assay [7] was more than 100 µM; in assay [8], 28.8 µM; in assay [9] it was 49 µM; in assay [10] it was 15.7 µM.

As to `COc1ccc(/C(=C/c2ccc3ccccc3c2)c2nn[nH]n2)cc1OC`, the GI50 in assay [1] was 3.08 µM; in assay [2], 6.55 µM; in assay [3], 2.81 µM; in assay [4] it was 28.2 µM; in assay [5], 0.867 µM; in [6], 2.79 µM. The GI50 in assay [7] was 5.63 µM; in assay [8], 3.33 µM; in [9] it was more than 100 µM; in assay [10], 4.02 µM. Further, the TGI in [1] is more than 100 µM; in [2], more than 100 µM; in assay [3], 16.3 µM; in assay [4], more than 100 µM; in assay [5], more than 100 µM; in assay [6] it was more than 100 µM. The TGI in assay [7], in assay [8], in assay [9] and in [10] was more than 100 µM throughout.

Turning to `O=c1c2ccccc2nc2n1CCc1c-2[nH]c2cc3c(cc12)OCO3`, the TGI in [2], in assay [3], in [4], in assay [6], in [8] and in [10] was more than 25 µM each time. Moreover, the results for the GI50 in assay [3] and in [8] were 1.55 µM and more than 25 µM, respectively.

Consider `Cc1cc2c(C(=O)NCC#N)cccc2n1-c1nc2c(c(NCc3ccccc3)n1)CCCC2`, for which the GI50 was 0.201 µM in assay [1]; 0.34 µM in [2]; 0.261 µM in assay [3]; 0.269 µM in assay [4]; 0.203 µM in [5]; 0.242 µM in assay [6]. Moreover, the GI50 is 0.18 µM in assay [7] and 0.293 µM in assay [9]. Further, the TGI in [1] came to 0.618 µM; in assay [2], 1.35 µM; in assay [3], 0.686 µM; in [4], 1.53 µM; in assay [5], 0.482 µM; in assay [6], 0.643 µM. The results for the TGI in [7] and in assay [9] were 0.358 µM and 0.748 µM, respectively.

For the compound `C/C=C(\C)c1cc(=O)c2c(C)cc3c(c2o1)C(OC)(OC(C)=O)c1c(O)c(C2CC(C)(N(C)C)C(OC(C)=O)C(C)O2)cc(C2CC(N(C)C)C(OC(C)=O)C(C)O2)c1C3=O` (stereo unspecified), the TGI amounted to 2.37 µM in assay [1]; 4.89 µM in assay [2]; 17.6 µM in [4]; 8.24 µM in [6]; 10.1 µM in [8]; 5.03 µM in assay [9].

As for `CCC(C)C(=O)O[C@H]1C(=O)O[C@@H]2C[C@H]3C(C)=CC(=O)[C@@H](O)[C@]3(C)[C@H]3[C@@H](O)[C@H](O)[C@@]4(C)OC[C@]32[C@@H]14` (stereo partly specified), the TGI in [1] was less than 0.024 µM; in [2], 0.454 µM; in [3] it was less than 0.0185 µM; in assay [4], less than 0.0105 µM; in assay [5], less than 0.0434 µM; in assay [6], 0.138 µM. For the same compound, the results for the TGI in assay [7], in assay [9] and in assay [10] were less than 0.0246 µM, less than 0.0259 µM and less than 0.0266 µM, respectively.

For the compound `C=C1C(=O)O[C@@H]2C[C@@H]1CC[C@]1(C)O[C@H]1CC/C(C)=C/CC[C@@]2(C)O`, the GI50 in assay [2] is 19.9 µM; in assay [3], 15.7 µM; in [4], 28.8 µM; in assay [5], 17.5 µM; in assay [6], 16.2 µM; in assay [7], 0.895 µM. Moreover, the GI50 was more than 100 µM in [8], 21.7 µM in assay [9] and 6.58 µM in assay [10]. In addition, the TGI in assay [2] was determined as 50.5 µM; in assay [3], 40.2 µM; in [4] it was 58.7 µM; in [5], 36.4 µM; in assay [6], 34.3 µM; in assay [7], 4.85 µM. In addition, the TGI in assay [8] is more than 100 µM; in assay [9], 59.2 µM; in assay [10] it was more than 100 µM.

As for `CN1CCN(Cc2ccc(NC(=O)c3cncc(C#Cc4c(N)ncc5c(F)cccc45)c3)cc2C(F)(F)F)CC1`, the GI50 is 0.443 µM in assay [1]; 0.741 µM in [2]; 0.803 µM in [3]; 1.94 µM in [4]; 0.845 µM in assay [5]; 0.0133 µM in assay [6]. The GI50 in assay [7] was 0.646 µM; in [9], 0.689 µM; in assay [10] it was 0.991 µM. Moreover, the TGI in assay [1] was found to be 1.23 µM; in [2], 1.61 µM; in [3], 1.57 µM; in [4], 6.38 µM; in [5], 1.81 µM; in assay [6] it was 0.65 µM. For the same compound, the TGI in assay [7] was 1.35 µM; in assay [9], 3.38 µM; in assay [10], 2.37 µM.

With `COc1ccc(C2CC(c3ccccc3)=NN2C(=O)c2cc(OC)c(OC)c(OC)c2)cc1O` (stereo unspecified), the GI50 in assay [1] was 41.2 µM; in [2] it was 0.902 µM; in assay [3], 0.354 µM; in assay [5], 0.269 µM; in assay [6] it was 0.371 µM; in [7], 0.611 µM. Further, the GI50 was 0.473 µM in assay [8], 1.29 µM in [9] and 0.259 µM in [10]. For the same compound, the TGI is more than 100 µM in assay [1]; more than 39.8 µM in assay [2]; 12.6 µM in assay [3]; 15.8 µM in assay [5]; 24.1 µM in [6]; 15.6 µM in [7]. Also, the TGI in [8] is more than 31.9 µM; in assay [9] it was 21.3 µM; in assay [10] it was 5.47 µM.

As to `O=C1Nc2ccc(O)cc2/C1=C\c1ccncc1`, the GI50 in assay [2] was 12 µM; in assay [3], 12.7 µM; in assay [4], 26.9 µM; in [5] it was 12.2 µM; in assay [6] it was 16.9 µM; in assay [7] it was 12 µM. Also, the GI50 in assay [10] is 34.1 µM. The TGI in assay [2] is 36.3 µM; in [3], 42.9 µM; in assay [4], more than 100 µM; in [5], 26.4 µM; in [6] it was 46.4 µM; in assay [7], 25.6 µM. Besides, the TGI in assay [10] is more than 100 µM.

For the compound `CCC1(OC(=O)CNC)C(=O)OCc2c1cc1n(c2=O)Cc2cc3ccccc3nc2-1` (stereo unspecified), the TGI was determined as 1.31 µM in assay [1]; 0.709 µM in assay [2]; 0.399 µM in assay [3]; 0.0186 µM in assay [5]; 1.46 µM in assay [6]; 0.137 µM in assay [7]. The TGI in assay [8] turned out to be 0.468 µM; in assay [9], 0.0641 µM; in [10], 0.415 µM.

As for `COC(=O)C(=O)C(C#N)c1cccc(Cl)c1` (stereo unspecified), the TGI in [1], in [2], in assay [3], in assay [5], in [6] and in assay [7] was more than 100 µM throughout. The TGI in [8], in assay [9] and in assay [10] was more than 100 µM throughout.

For `CN1C(=O)/C(=C2\S/C(=N\c3nnc(-c4ccccc4)o3)NC2=O)c2ccccc21`, the GI50 in assay [2] was more than 100 µM; in assay [3] it was 65.6 µM; in [4], more than 100 µM; in assay [5], 79.2 µM; in [6], more than 100 µM; in assay [7], 77.9 µM. In addition, the GI50 in [8] is 63.7 µM; in assay [10], more than 100 µM. Further, the TGI in assay [2], in [3], in assay [4], in assay [5], in assay [6] and in [7] was more than 100 µM in each case. In addition, the TGI in assay [8] and in assay [10] was more than 100 µM throughout.

With `c1ccc(COCC[P+](c2ccccc2)(c2ccccc2)c2ccccc2)cc1`, the GI50 was 3.17 µM in assay [2]; 1.5 µM in [3]; 0.259 µM in [4]; 0.501 µM in assay [6]; 1.87 µM in [7]; 1.36 µM in assay [8]. In addition, the GI50 in [9] was 1.22 µM; in assay [10] it was 0.242 µM. The TGI in [2] stood at 23.1 µM; in assay [3], 10.7 µM; in assay [4], 21.6 µM; in assay [6] it was 11.1 µM; in [7], 6.05 µM; in assay [8] it was 14.1 µM. For the same compound, the TGI in [9] came out at 29.8 µM; in [10], 1.9 µM.

As for `CC(=O)N(C)c1cc(NCc2ccccc2)ccc1OCc1ccccc1`, the TGI in [1] is 35.3 µM; in [2], 30.4 µM; in assay [3], 33.4 µM; in [4], more than 100 µM; in [5], 31.8 µM; in assay [6], 47.4 µM. Moreover, the TGI in assay [7] stood at 36.2 µM; in assay [8] it was 45 µM; in assay [9] it was 35.9 µM.

Turning to `COc1cccc(CCNC(=O)CC(c2ccccc2)(c2ccccc2)c2ccccc2)c1`, the GI50 in [2] is 15 µM; in assay [3], 10.5 µM; in [4] it was more than 100 µM; in [5] it was 0.613 µM; in assay [6] it was 4.75 µM; in [8], 8.16 µM. Besides, the GI50 in assay [10] was 4.98 µM. The TGI in assay [2], in [3], in assay [4], in [5], in [6] and in assay [8] was more than 100 µM each time. The compound further came in with a TGI in assay [10] of more than 100 µM.

For the compound `COc1ccc(NC(=S)C#N)cc1`, the TGI in assay [2], in assay [4], in assay [5], in assay [6], in assay [7] and in assay [8] was more than 100 µM each time. Also, the TGI in assay [9] and in [10] was more than 100 µM each time.

With `CN1C(c2ccccc2)CC(C)(O)CC1c1ccccc1` (stereo unspecified), the TGI in [1], in assay [2], in [3], in assay [5], in [6] and in assay [7] was more than 100 µM in each case. Further, the TGI in [8], in assay [9] and in assay [10] was more than 100 µM throughout.

As to `O=C1C(Cl)=C(Cl)C(=O)N1c1ccccc1Cl`, the TGI was more than 88 µM in assay [1]; more than 100 µM in assay [2]; more than 100 µM in assay [3]; more than 100 µM in assay [5]; more than 100 µM in assay [6]; more than 100 µM in assay [7]. The TGI is 19.3 µM in [8], more than 100 µM in [9] and more than 88.1 µM in assay [10].
